Experimental data from patent publication US6525001B1, “Substituted pyrimidine and pyridine herbicides” (Mid-American Commercialization Corporation, priority 1997, dated 2003).

Legend:
Assay type in all cases: in vivo
[1] = tested on: blackgrass (Alopecurus myosuroides); assay: Test B pre-/postemergence; parameters: key: 0 is no effect; 10 is complete control
Procedure, shortened: (§1)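 Response scores run from 0, meaning no effect, to 10, meaning complete control, assigned by eye relative to controls twelve to sixteen days after spraying. Treatment was both preemergence on planted seed and postemergence on plants at the 1- to 4-leaf stage.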

[2] = tested on: cocklebur (Xanthium strumarium); assay: Test B pre-/postemergence; parameters: key: 0 is no effect; 10 is complete control
Procedure, shortened: as §1

[3] = tested on: corn (Zea mays); assay: Test B pre-/postemergence; parameters: key: 0 is no effect; 10 is complete control
Procedure, shortened: as §1

[4] = tested on: crabgrass (Digitaria sanguinalis); assay: Test B pre-/postemergence; parameters: key: 0 is no effect; 10 is complete control
Procedure, shortened: as §1

[5] = tested on: pigweed (Amaranthus retroflexus); assay: Test B pre-/postemergence; parameters: key: 0 is no effect; 10 is complete control
Procedure, shortened: as §1

[6] = tested on: purple nutsedge (Cyperus rotundus); assay: Test B pre-/postemergence; parameters: key: 0 is no effect; 10 is complete control
Procedure, shortened: as §1

[7] = tested on: rape (Brassica napus); assay: Test B pre-/postemergence; parameters: key: 0 is no effect; 10 is complete control
Procedure, shortened: as §1

[8] = tested on: soybean (Glycine max); assay: Test B pre-/postemergence; parameters: key: 0 is no effect; 10 is complete control
Procedure, shortened: as §1

[9] = tested on: sugar beet (Beta vulgaris); assay: Test B pre-/postemergence; parameters: key: 0 is no effect; 10 is complete control
Procedure, shortened: as §1

[10] = tested on: velvetleaf (Abutilon theophrasti); assay: Test B pre-/postemergence; parameters: key: 0 is no effect; 10 is complete control
Procedure, shortened: as §1

[11] = tested on: wheat (Triticum aestivum); assay: Test B pre-/postemergence; parameters: key: 0 is no effect; 10 is complete control
Procedure, shortened: as §1

[12] = tested on: bamyardgrass (Echinochloa crus-galli); assay: Test B flood test
Procedure, shortened: (§2)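 Each value is a visual injury score relative to controls, with 10 meaning complete control and 0 no effect. Evaluation took place twelve to sixteen days after the 2-leaf-stage plants were treated and kept in the greenhouse.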

[13] = tested on: duck salad (Heteranthera limosa); assay: Test B flood test
Procedure, shortened: as §2

[14] = tested on: rice (Oryza sativa); assay: Test B flood test
Procedure, shortened: as §2

[15] = tested on: smallflower flatsedge (Cyperus difformis); assay: Test B flood test
Procedure, shortened: as §2

[16] = Rate 62 g/ha, Postemergence (flood test)
[17] = Rate 125 g/ha, Postemergence, flood test
[18] = Rate 250 g/ha, Postemergence (flood test species)
[19] = Rate 500 g/ha, Postemergence (flood test species)

With `Cc1cnc(-c2ccc(C(F)(F)F)cc2)nc1Cn1ccc(C(F)(F)C(F)(F)F)n1` [Compound 14] the “Plant response rating, Blackgrass” value ([1]; Rate 62 g/ha, Postemergence) was 1, the “Blackgrass plant response rating” value ([1]; Rate 62 g/ha, Preemergence) was 0 and the “Plant response rating, Blackgrass” value ([1]; Rate 125 g/ha, Postemergence) was 2. For the same molecule, the “Blackgrass plant response rating” value ([1]; Rate 125 g/ha, Preemergence) was 0, the “Plant response rating, Blackgrass” value ([1]; Rate 250 g/ha, Postemergence) was 3 and the “Plant response rating, Blackgrass” value ([1]; Rate 250 g/ha, Preemergence) was 0. The “Plant response rating, Blackgrass” value ([1]; Rate 500 g/ha, Postemergence) was 3, the “Plant response rating, Blackgrass” value ([1]; Rate 500 g/ha, Preemergence) was 3 and the “Plant response rating, Cocklebur” value ([2]; Rate 62 g/ha, Postemergence) was 4. The “Cocklebur plant response rating” value ([2]; Rate 62 g/ha, Preemergence) was 0, the “Plant response rating, Cocklebur” value ([2]; Rate 125 g/ha, Postemergence) was 7 and the “Plant response rating, Cocklebur” value ([2]; Rate 250 g/ha, Postemergence) was 7. For the same molecule, the “Plant response rating, Cocklebur” value ([2]; Rate 250 g/ha, Preemergence) was 0, the “Plant response rating, Cocklebur” value ([2]; Rate 500 g/ha, Postemergence) was 7 and the “Plant response rating, Corn” value ([3]; Rate 62 g/ha, Postemergence) was 2. The “Corn plant response rating” value ([3]; Rate 62 g/ha, Preemergence) was 0, the “Plant response rating, Corn” value ([3]; Rate 125 g/ha, Postemergence) was 2 and the “Corn plant response rating” value ([3]; Rate 125 g/ha, Preemergence) was 0. For the same molecule, the “Plant response rating, Corn” value ([3]; Rate 250 g/ha, Postemergence) was 3, the “Plant response rating, Corn” value ([3]; Rate 250 g/ha, Preemergence) was 0 and the “Plant response rating, Corn” value ([3]; Rate 500 g/ha, Postemergence) was 3. For the same molecule, the “Plant response rating, Corn” value ([3]; Rate 500 g/ha, Preemergence) was 3, the “Plant response rating, Crabgrass” value ([4]; Rate 62 g/ha, Postemergence) was 2 and the “Crabgrass plant response rating” value ([4]; Rate 62 g/ha, Preemergence) was 0. For the same molecule, the “Plant response rating, Crabgrass” value ([4]; Rate 125 g/ha, Postemergence) was 2, the “Crabgrass plant response rating” value ([4]; Rate 125 g/ha, Preemergence) was 1 and the “Plant response rating, Crabgrass” value ([4]; Rate 250 g/ha, Postemergence) was 2. For the same molecule, the “Plant response rating, Crabgrass” value ([4]; Rate 250 g/ha, Preemergence) was 7, the “Plant response rating, Crabgrass” value ([4]; Rate 500 g/ha, Postemergence) was 4 and the “Plant response rating, Crabgrass” value ([4]; Rate 500 g/ha, Preemergence) was 8. The “Plant response rating, Redroot pigweed” value ([5]; Rate 62 g/ha, Postemergence) was 8, the “Redroot pigweed plant response rating” value ([5]; Rate 62 g/ha, Preemergence) was 0 and the “Plant response rating, Redroot pigweed” value ([5]; Rate 125 g/ha, Postemergence) was 9. For the same molecule, the “Redroot pigweed plant response rating” value ([5]; Rate 125 g/ha, Preemergence) was 2, the “Plant response rating, Redroot pigweed” value ([5]; Rate 250 g/ha, Postemergence) was 9 and the “Plant response rating, Redroot pigweed” value ([5]; Rate 250 g/ha, Preemergence) was 4. For the same molecule, the “Plant response rating, Redroot pigweed” value ([5]; Rate 500 g/ha, Postemergence) was 9, the “Plant response rating, Redroot pigweed” value ([5]; Rate 500 g/ha, Preemergence) was 4 and the “Plant response rating, Nutsedge” value ([6]; Rate 62 g/ha, Postemergence) was 0. The “Nutsedge plant response rating” value ([6]; Rate 62 g/ha, Preemergence) was 0, the “Plant response rating, Nutsedge” value ([6]; Rate 125 g/ha, Postemergence) was 0 and the “Nutsedge plant response rating” value ([6]; Rate 125 g/ha, Preemergence) was 0. For the same molecule, the “Plant response rating, Nutsedge” value ([6]; Rate 250 g/ha, Postemergence) was 0, the “Plant response rating, Nutsedge” value ([6]; Rate 250 g/ha, Preemergence) was 0 and the “Plant response rating, Nutsedge” value ([6]; Rate 500 g/ha, Postemergence) was 0. For the same molecule, the “Plant response rating, Nutsedge” value ([6]; Rate 500 g/ha, Preemergence) was 0, the “Plant response rating, Rape” value ([7]; Rate 62 g/ha, Postemergence) was 5 and the “Rape plant response rating” value ([7]; Rate 62 g/ha, Preemergence) was 0. The “Plant response rating, Rape” value ([7]; Rate 125 g/ha, Postemergence) was 6, the “Rape plant response rating” value ([7]; Rate 125 g/ha, Preemergence) was 1 and the “Plant response rating, Rape” value ([7]; Rate 250 g/ha, Postemergence) was 6. For the same molecule, the “Plant response rating, Rape” value ([7]; Rate 250 g/ha, Preemergence) was 2, the “Plant response rating, Rape” value ([7]; Rate 500 g/ha, Postemergence) was 7 and the “Plant response rating, Rape” value ([7]; Rate 500 g/ha, Preemergence) was 8. The “Plant response rating, Soybean” value ([8]; Rate 62 g/ha, Postemergence) was 4, the “Soybean plant response rating” value ([8]; Rate 62 g/ha, Preemergence) was 0 and the “Plant response rating, Soybean” value ([8]; Rate 125 g/ha, Postemergence) was 4. For the same molecule, the “Soybean plant response rating” value ([8]; Rate 125 g/ha, Preemergence) was 0, the “Plant response rating, Soybean” value ([8]; Rate 250 g/ha, Postemergence) was 5 and the “Plant response rating, Soybean” value ([8]; Rate 250 g/ha, Preemergence) was 0. The “Plant response rating, Soybean” value ([8]; Rate 500 g/ha, Postemergence) was 5, the “Plant response rating, Soybean” value ([8]; Rate 500 g/ha, Preemergence) was 1 and the “Plant response rating, Sugarbeets” value ([9]; Rate 62 g/ha, Postemergence) was 7. For the same molecule, the “Sugarbeets plant response rating” value ([9]; Rate 62 g/ha, Preemergence) was 3, the “Plant response rating, Sugarbeets” value ([9]; Rate 125 g/ha, Postemergence) was 8 and the “Sugarbeets plant response rating” value ([9]; Rate 125 g/ha, Preemergence) was 5. For the same molecule, the “Plant response rating, Sugarbeets” value ([9]; Rate 250 g/ha, Postemergence) was 8, the “Plant response rating, Sugarbeets” value ([9]; Rate 250 g/ha, Preemergence) was 6 and the “Plant response rating, Sugarbeets” value ([9]; Rate 500 g/ha, Postemergence) was 9. For the same molecule, the “Plant response rating, Sugarbeets” value ([9]; Rate 500 g/ha, Preemergence) was 9, the “Plant response rating, Velvetleaf” value ([10]; Rate 62 g/ha, Postemergence) was 3 and the “Velvetleaf plant response rating” value ([10]; Rate 62 g/ha, Preemergence) was 0. For the same molecule, the “Plant response rating, Velvetleaf” value ([10]; Rate 125 g/ha, Postemergence) was 4, the “Velvetleaf plant response rating” value ([10]; Rate 125 g/ha, Preemergence) was 0 and the “Plant response rating, Velvetleaf” value ([10]; Rate 250 g/ha, Postemergence) was 4. For the same molecule, the “Plant response rating, Velvetleaf” value ([10]; Rate 250 g/ha, Preemergence) was 1, the “Plant response rating, Velvetleaf” value ([10]; Rate 500 g/ha, Postemergence) was 4 and the “Plant response rating, Velvetleaf” value ([10]; Rate 500 g/ha, Preemergence) was 7. For the same molecule, the “Plant response rating, Wheat” value ([11]; Rate 62 g/ha, Postemergence) was 0, the “Wheat plant response rating” value ([11]; Rate 62 g/ha, Preemergence) was 0 and the “Plant response rating, Wheat” value ([11]; Rate 125 g/ha, Postemergence) was 0. For the same molecule, the “Wheat plant response rating” value ([11]; Rate 125 g/ha, Preemergence) was 0, the “Plant response rating, Wheat” value ([11]; Rate 250 g/ha, Postemergence) was 2 and the “Plant response rating, Wheat” value ([11]; Rate 250 g/ha, Preemergence) was 0. The “Plant response rating, Wheat” value ([11]; Rate 500 g/ha, Postemergence) was 3, the “Plant response rating, Wheat” value ([11]; Rate 500 g/ha, Preemergence) was 0 and the “Plant response rating, Barnyardgrass” value [12, 16] was 4. The “Plant response rating, Barnyardgrass” value [12, 17] was 5, the “Plant response rating, Barnyardgrass” value [12, 18] was 5 and the “Plant response rating, Barnyardgrass” value [12, 19] was 6. For the same molecule, the “Plant response rating, Ducksalad” value [13, 16] was 2, the “Plant response rating, Ducksalad” value [13, 17] was 2 and the “Plant response rating, Ducksalad” value [13, 18] was 2. The “Plant response rating, Ducksalad” value [13, 19] was 3, the “Plant response rating, Rice” value [14, 16] was 4 and the “Plant response rating, Rice” value [14, 17] was 4. For the same molecule, the “Plant response rating, Rice” value [14, 18] was 5, the “Plant response rating, Rice” value [14, 19] was 5 and the “Plant response rating, S. Flatsedge” value [15, 16] was 8. For the same molecule, the “Plant response rating, S. Flatsedge” value [15, 17] was 8, the “Plant response rating, S. Flatsedge” value [15, 18] was 8 and the “Plant response rating, S. Flatsedge” value [15, 19] was 9.
